Results on 17 compounds are retold here after patent US10961215B2, “N-aryl and N-heteroaryl piperidine derivatives as liver X receptor beta agonists, compositions, and their use” (Merck Sharp & Dohme Corp., priority 2016, dated 2021).

Assay [1] deals with T1, GST tagged LXRbeta LBD (ligand binding domain) (Homo sapiens, UniProt P55055).
T1 construct: purchased Invitrogen pv4658.pps
T1 sequence (P55055 222-460 limits assumed): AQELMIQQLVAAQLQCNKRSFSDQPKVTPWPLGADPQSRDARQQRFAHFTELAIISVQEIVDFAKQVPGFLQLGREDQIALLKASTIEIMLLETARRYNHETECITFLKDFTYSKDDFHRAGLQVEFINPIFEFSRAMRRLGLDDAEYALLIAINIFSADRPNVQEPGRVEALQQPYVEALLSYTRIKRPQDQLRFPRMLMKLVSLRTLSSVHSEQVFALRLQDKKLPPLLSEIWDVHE
Put plainly: LanthaScreen TR-FRET Liver X Receptor Coactivator Assay, LXR beta-LBD (co-activator recruitment; IP and % Emax relative to T0901317). Conditions: for EC50: Inflection Point of co-activator recruitment, LXR beta-LBD, TR-FRET; for Emax / LXR beta actiivty at max dose (%): efficacy at max dose in relation to reference T0901317, LXR beta-LBD; for Emax: read-out: LXR beta actiivty at max dose (%). The format is biochemical. An outline of the steps: (§1)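 Potency as inflection point and efficacy as Emax come from compound-driven coactivator peptide recruitment, scaled to T0901317, using a terbium/fluorescein TR-FRET format after room-temperature incubation.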
In general terms: TR-FRET usually uses a lanthanide donor and a delayed reading to cut background.

Assay [2] has as its target T2, GST tagged LXRalpha LBD (ligand binding domain) (Homo sapiens, UniProt Q13133).
T2 construct: purchased Invitrogen pv4655
T2 sequence (Q13133 209-447 limits assumed): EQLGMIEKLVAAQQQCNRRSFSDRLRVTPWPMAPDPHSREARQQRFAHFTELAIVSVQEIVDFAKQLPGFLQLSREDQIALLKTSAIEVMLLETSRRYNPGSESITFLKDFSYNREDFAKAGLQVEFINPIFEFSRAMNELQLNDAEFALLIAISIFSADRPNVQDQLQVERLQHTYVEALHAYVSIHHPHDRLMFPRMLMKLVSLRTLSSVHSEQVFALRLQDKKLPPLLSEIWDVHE
Put plainly: LanthaScreen TR-FRET Liver X Receptor Coactivator Assay, LXR alpha-LBD (co-activator recruitment; IP and % Emax relative to T0901317). In kind it is biochemical. The settings on record: for LXR alpha IP (nM) / EC50: Inflection Point of co-activator recruitment, LXR alpha-LBD, TR-FRET; for Emax: read-out: LXR alpha actiivty at max dose (%). The gist of the method: as §1

[3] abbreviates: efficacy at max dose in relation to reference T0901317, LXR alpha-LBD.

`CN(C)C(=O)c1ccc(N2CCC(CCCN(C)C(=O)[C@@](O)(c3cccc(C(F)(F)F)c3)C(F)(F)F)CC2)nc1Cl` [Example 1-48, (S)-2-chloro-N,N-dimethyl-6-(4-(3-(3,3,3-trifluoro-2-hydroxy-N-methyl-2-(3-(trifluoromethyl)phenyl)pro-panamido)propyl)piperidin-1-yl)nicotinamide]: a half-maximal effect in assay [1] (EC50) was put at 0.333 µM. The figures for the Emax in assay [1] and in assay [2] (setting [3]) were 43% and 2%, respectively. The “LXR alpha IP (nM)” value in assay [2] was “No IP”.
Regarding `CN(C)C(=O)c1ccc(N2CCC(CCCN(C)C(=O)C(O)(c3cccc(O)c3)C(F)(F)F)CC2)nc1Cl` (centres unmarked) [Example 1-45, 2-chloro-N,N-dimethyl-6-(4-(3-(3,3,3-trifluoro-2-hydroxy-2-(3-hydroxyphenyl)-N-methylpropanamido)propyl)piperidin-1-yl)nicotinamide], the EC50 (commonly the concentration that produces a half-maximal response) in assay [1] came out at 0.045 µM; in assay [2] it was 2.51 µM. For the same compound, the Emax in assay [1] was 82%; in assay [2] (setting [3]) it was 32%.
As to `COc1cccc([C@@](O)(C(=O)NC[C@@H]2C[C@@H]2C2CCN(c3ccc(C(=O)N(C)C)c(Cl)n3)CC2)C(F)(F)F)c1` [Example 15-10, 2-chloro-N,N-dimethyl-6-(4-((1R,2R)-2-(((R)-3,3,3-trifluoro-2-hydroxy-2-(3-methoxyphenyl)propanamido)methyl)cyclopropyl)piperidin-1-yl)nicotinamide], in assay [1], the EC50 was determined as 0.442 µM and the Emax was determined as 38%. In assay [2], the “LXR alpha IP (nM)” value was “No IP”. Further, the Emax in assay [2] (setting [3]) was determined as 4%.
Regarding `CNC(=O)c1ccc(N2CCC([C@H]3C[C@H]3CNC(=O)[C@](O)(c3cccc(OC)c3)C(F)(F)F)CC2)nc1Cl` [Example 15-11, 2-chloro-N-methyl-6-(4-((1R,2R)-2-(((R)-3,3,3-trifluoro-2-hydroxy-2-(3-methoxyphenyl)propanamido)methyl)cyclopropyl)piperidin-1-yl)nicotinamide], in assay [1], the response was half-maximal at 4.44 µM (EC50) and the Emax stood at 36%. Besides, the “LXR alpha IP (nM)” value in assay [2] was “No IP”. For the same compound, in assay [2] (setting [3]), the Emax turned out to be 1%.
With `CN(C)C(=O)c1ccc(N2CCC(CCCNC(=O)[C@@](O)(c3ccccc3)C(F)(F)F)CC2)nc1Cl` [Example 5-9, (S)-2-chloro-N,N-dimethyl-6-(4-(3-(3,3,3-trifluoro-2-hydroxy-2-phenylpropanamido)propyl)piperidin-1-yl) nicotinamide], the EC50 was determined as 0.165 µM in assay [1] and 2.28 µM in assay [2]. In addition, the Emax worked out at 101% in assay [1] and 9% in assay [2] (setting [3]).
Consider `CN(C)C(=O)c1ccc(N2CCC(CCCN(C)C(=O)C(O)(c3ccccc3)C(F)(F)F)CC2)cc1Cl` (single isomer, unassigned) [Example 4-4, 2-chloro-N,N-dimethyl-4-(4-(3-(3,3,3-trifluoro-2-hydroxy-N-methyl-2-phenylpropanamido)propyl)piperidin-1-yl)benzamide], for which the EC50 was 0.045 µM in assay [1] and 1.58 µM in assay [2]. For the same compound, in assay [1], the “LXR beta actiivty at max dose (%)” value is reported as 59%. The Emax in assay [2] (setting [3]) was determined as 14%.
`CN(C)C(=O)c1ccc(N2CCC(CCCN(C)C(=O)[C@@](O)(c3cccc(OC(F)F)c3)C(F)(F)F)CC2)nc1Cl` [Example 1-50, (S)-2-chloro-6-(4-(3-(2-(3-(difluoromethoxy)phenyl)-3,3,3-trifluoro-2-hydroxy-N-methyl-propanamido)propyl)piperidin-1-yl)-N,N-dimethylnicotinamide]: in assay [1], the response was half-maximal at 0.062 µM (EC50) and the Emax is 63%. Also, the “LXR alpha IP (nM)” value in assay [2] is recorded as “No IP”. Besides, in assay [2] (setting [3]), the Emax turned out to be 18%.
Consider `COc1cccc([C@@](O)(C(=O)N(C)CCCC2CCN(c3ccc(C(=O)N(C)Cc4noc(C5CC5)n4)c(Cl)n3)CC2)C(F)(F)F)c1` [Example 2-12, (R)-2-chloro-N-((5-cyclopropyl-1,2,4-oxadiazol-3-yl)methyl)-N-methyl-6-(4-(3-(3,3,3-trifluoro-2-hydroxy-2-(3-methoxyphenyl)-N-methylpropanamido)propyl)piperidin-1-yl)nicotinamide], for which the half-maximal effective concentration (EC50) in assay [1] turned out to be 0.011 µM; in assay [2], 0.095 µM. In addition, the figures for the Emax in assay [1] and in assay [2] (setting [3]) were 62% and 40%, respectively.
Taken in the same sequence, the figures for `CN(C)C(=O)c1ccc(N2CCC(CCCNC(=O)[C@](O)(c3cccc(OC(F)(F)F)c3)C(F)(F)F)CC2)nc1Cl` [Example 5-12, (R)-2-chloro-N,N-dimethyl-6-(4-(3-(3,3,3-trifluoro-2-hydroxy-2-(3-(trifluoromethoxy)phenyl)propanamido)propyl)piperidin-1-yl)nicotinamide] were 1.01 µM, 13.2 µM, 40% and 40%.
Consider `CC(C)N(C)C(=O)c1ccc(N2CCC3(CC2)C[C@H]3CCN(C)C(=O)[C@](O)(c2ccccc2)C(F)(F)F)cc1Cl` [Example 7-29, 2-chloro-N-isopropyl-N-methyl-4-((S)-1-(2-((R)-3,3,3-trifluoro-2-hydroxy-N-methyl-2-phenylpropanamido)ethyl)-6-azaspiro[2.5]octan-6-yl)benzamide], for which, in assay [1], the EC50 came to 0.611 µM and the Emax amounted to 40%. Also, the “LXR alpha IP (nM)” value in assay [2] is recorded as “No IP”. Besides, the Emax in assay [2] (setting [3]) is 5%.
`CN(C)C(=O)c1ccc(N2CCC(CCCN(C)C(=O)[C@](O)(c3ccccc3)C(F)(F)F)CC2)nc1C#N` [Example 2-19, (R)-2-cyano-N,N-dimethyl-6-(4-(3-(3,3,3-trifluoro-2-hydroxy-N-methyl-2-phenylpropanamido)propyl)piperidin-1-yl)nicotinamide]: the EC50 in assay [1] was found to be 0.128 µM; in assay [2], 2.61 µM. For the same compound, the results for the Emax in assay [1] and in assay [2] (setting [3]) were 76% and 23%, respectively.
Taken in the same sequence, the figures for `CC(C)NC(=O)c1ccc(N2CCC3(CC2)C[C@@H]3CCN(C)C(=O)[C@](O)(c2ccccc2)C(F)(F)F)cc1Cl` [Example 7-12, 2-chloro-N-isopropyl-4-((R)-1-(2-((R)-3,3,3-trifluoro-2-hydroxy-N-methyl-2-phenylpropanamido)ethyl)-6-azaspiro[2.5]octan-6-yl)benzamide] were 0.079 µM, 0.765 µM, 64% and 47%.
With `CCN(CC)C(=O)c1ccc(N2CCC(CCCN(C)C(=O)[C@](O)(c3cccc(OC)c3)C(F)(F)F)CC2)cc1Cl` [Example 4-9, (R)-2-chloro-N,N-diethyl-4-(4-(3-(3,3,3-trifluoro-2-hydroxy-2-(3-methoxyphenyl)-N-methylpropanamido)propyl)piperidin-1-yl)benzamide], in assay [1], the EC50 is 0.072 µM and the Emax was determined as 40%. Besides, the “LXR alpha IP (nM)” value in assay [2] is recorded as “No IP”. For the same compound, the Emax in assay [2] (setting [3]) worked out at 0%.
Taken in the same sequence, the figures for `CN(C)C(=O)c1ccc(N2CCC(CCCN(C)C(=O)C3(c4ccccc4)CCOCC3)CC2)nc1Cl` [Example 1-17, 2-chloro-N,N-dimethyl-6-(4-(3-(N-methyl-4-phenyl-tetrahydro-2H-pyran-4-carboxamido)propyl)piperidin-1-yl)nicotinamide] were 0.29 µM, 55%, “No IP” and 7%.
Regarding `CN(C)C(=O)c1ccc(N2CCC(CC3CC(NC(=O)[C@](O)(c4ccccc4)C(F)(F)F)C3)CC2)nc1Cl` (stereo partly drawn) [Example 11-2, (R)-2-chloro-N,N-dimethyl-6-(4-((3-(3,3,3-trifluoro-2-hydroxy-2-phenylpropanamido)cyclobutyl)methyl)piperidin-1-yl)nicotinamide], the results for the EC50 in assay [1] and in assay [2] were 0.273 µM and 2.39 µM, respectively. For the same compound, the values for the Emax in assay [1] and in assay [2] (setting [3]) were 118% and 28%, respectively.
Taken in the same sequence, the figures for `COc1cccc([C@@](O)(C(=O)N(C)CC[C@H]2CC23CCN(c2ccc(C(=O)NC4CC4)c(Cl)c2)CC3)C(F)(F)F)c1` [Example 7-9, 2-chloro-N-cyclopropyl-4-((R)-1-(2-((R)-3,3,3-trifluoro-2-hydroxy-2-(3-methoxyphenyl)-N-methylpropanamido)ethyl)-6-azaspiro[2.5]octan-6-yl)benzamide] were 0.109 µM, 0.775 µM, 52% and 25%.
In the case of `CN(C)C(=O)c1ccc(N2CCC(CCCN(C)C(=O)C(O)(c3ccccc3)C(F)(F)F)CC2)cc1Cl` (single isomer, unassigned) [Example 4-6, 2-chloro-N,N-dimethyl-4-(4-(3-(3,3,3-trifluoro-2-hydroxy-N-methyl-2-phenylpropanamido)propyl)piperidin-1-yl)benzamide], in assay [1], the 50% effective concentration (EC50) turned out to be 0.077 µM and the “LXR beta actiivty at max dose (%)” value was 73%. This compound also registered an EC50 in assay [2] of 0.677 µM. Besides, the “LXR alpha actiivty at max dose (%)” value in assay [2] (setting [3]) was determined as 15%.
